Literature values in patent US7727757B2, “Methods of eliciting antiviral immune responses utilizing viral particles comprising photoinactivated reverse transcriptase” (priority 1998, dated 2010).
“Also recorded” adds a separate entry of the source.

Legend:
[1] = tested on: HIV; conditions: short exposure, without photoinactivation
[2] = tested on: ERT in HIV virions
[3] = target: HIV-1 reverse transcriptase (Human immunodeficiency virus type 1 group M subtype B, UniProt P04585); conditions: for inhibition of RT (in words): prior-art statement; for IC50: value stated without method or source, used to set the incubation concentration, read-out: IC50 (50% inhibitory concentration)
[4] = tested on: HIV infected cells; conditions: compound provided to HIV infected cells

SMILES	HIV infectivity after exposure of isolated virus [1]	inhibition of ERT in HIV virions [2]	inhibition of RT (in words) [3]	IC50 [3]	infectivity of nascent virus from HIV infected cells [4]
CC(C)=CCOc1cc(NC(=S)c2ccoc2C)ccc1Cl [UC781™, N-[4-chloro-3-(3-methyl-2-butenyloxy)phenyl]-2-methyl-3-furanocarbothiamide]	eliminate HIV infectivity	inhibit ERT in HIV virions	potent inhibitors of RT	0.2 nM	production of noninfectious nascent virus; also recorded: inactivate nascent virus from HIV-infected cells
CCN1c2cc(N=[N+]=[N-])ccc2N(C)C(=O)c2cccnc21 [azido dipyridodiazepinona, 9-Azido-5,6-dihydro-11-ethyl-6-methyl-11H-pyrido[2,3-b][1,5]benzodiazepin-5-one]			potent inhibitors of RT	160 nM	
